Experimental data: the NIST ThermoML archive (doi:10.1016/j.jct.2014.05.016)
Numbers after ± are expanded uncertainties.

Assay: xn = mol fraction of the nth substance listed
Settings: 100 kPa, Liquid; for viscosity: Concentric cylinders viscometry; for mass density: Vibrating tube method

C[n+]1ccn(CCO)c1.F[B-](F)(F)F [1-(2-hydroxyethyl)-3-methylimidazolium tetrafluoroborate] + CCCCn1cc[n+](C)c1.F[B-](F)(F)F
Settings	mass density [kg/m3]	viscosity [mPa·s]
293.15 K, x1 = 0.1003	–	141.5 ± 12
293.15 K, x1 = 0.101	1217.5 ± 1.1	–
293.15 K, x1 = 0.2001	–	138.1 ± 11
293.15 K, x1 = 0.201	1230.9 ± 1.1	–
293.15 K, x1 = 0.2997	–	139.6 ± 11
293.15 K, x1 = 0.3002	1245.7 ± 1.1	–
293.15 K, x1 = 0.3999	–	140.6 ± 11
293.15 K, x1 = 0.4006	1261.4 ± 1.1	–
293.15 K, x1 = 0.4996	–	138.7 ± 11
293.15 K, x1 = 0.5009	1276.1 ± 1.1	–
293.15 K, x1 = 0.5991	1292.3 ± 1.1	143.1 ± 12
293.15 K, x1 = 0.6997	–	144.7 ± 12
293.15 K, x1 = 0.7001	1310.8 ± 1.1	–
293.15 K, x1 = 0.7999	–	147.1 ± 12
293.15 K, x1 = 0.8	1326.3 ± 1.1	–
293.15 K, x1 = 0.8995	1344.4 ± 1.1	–
293.15 K, x1 = 0.8998	–	152.3 ± 12
293.15 K, x1 = 1	1362.4 ± 1.1	153.6 ± 12
298.15 K, x1 = 0.1003	–	107.8 ± 8.7
298.15 K, x1 = 0.101	1214 ± 1.1	–
298.15 K, x1 = 0.2001	–	105.3 ± 8.5
298.15 K, x1 = 0.201	1227.4 ± 1.1	–
298.15 K, x1 = 0.2997	–	106.6 ± 8.6
298.15 K, x1 = 0.3002	1242 ± 1.1	–
298.15 K, x1 = 0.3999	–	107.4 ± 8.7
298.15 K, x1 = 0.4006	1257.9 ± 1.1	–
298.15 K, x1 = 0.4996	–	105.4 ± 8.5
298.15 K, x1 = 0.5009	1272.5 ± 1.1	–
298.15 K, x1 = 0.5991	1288.6 ± 1.1	108.3 ± 8.7
298.15 K, x1 = 0.6997	–	109.3 ± 8.8
298.15 K, x1 = 0.7001	1307.6 ± 1.1	–
298.15 K, x1 = 0.7999	–	111.4 ± 9
298.15 K, x1 = 0.8	1322.5 ± 1.1	–
298.15 K, x1 = 0.8995	1340.6 ± 1.1	–
298.15 K, x1 = 0.8998	–	114.1 ± 9.2
298.15 K, x1 = 1	1358.7 ± 1.1	115.1 ± 9.3
303.15 K, x1 = 0.1003	–	83.64 ± 6.7
303.15 K, x1 = 0.101	1210.4 ± 1.1	–
303.15 K, x1 = 0.2001	–	81.83 ± 6.6
303.15 K, x1 = 0.201	1223.9 ± 1.1	–
303.15 K, x1 = 0.2997	–	82.64 ± 6.6
303.15 K, x1 = 0.3002	1238.5 ± 1.1	–
303.15 K, x1 = 0.3999	–	83.2 ± 6.7
303.15 K, x1 = 0.4006	1254.3 ± 1.1	–
303.15 K, x1 = 0.4996	–	81.76 ± 6.6
303.15 K, x1 = 0.5009	1268.9 ± 1.1	–
303.15 K, x1 = 0.5991	1284.9 ± 1.1	83.78 ± 6.7
303.15 K, x1 = 0.6997	–	84.42 ± 6.8
303.15 K, x1 = 0.7001	1304.2 ± 1.1	–
303.15 K, x1 = 0.7999	–	85.38 ± 6.9
303.15 K, x1 = 0.8	1318.9 ± 1.1	–
303.15 K, x1 = 0.8995	1336.9 ± 1.1	–
303.15 K, x1 = 0.8998	–	87.51 ± 7
303.15 K, x1 = 1	1354.8 ± 1.1	87.98 ± 7.1
308.15 K, x1 = 0.1003	–	66.1 ± 5.3
308.15 K, x1 = 0.101	1206.9 ± 1.1	–
308.15 K, x1 = 0.2001	–	64.77 ± 5.2
308.15 K, x1 = 0.201	1220.5 ± 1.1	–
308.15 K, x1 = 0.2997	–	65.41 ± 5.2
308.15 K, x1 = 0.3002	1234.9 ± 1.1	–
308.15 K, x1 = 0.3999	–	65.73 ± 5.3
308.15 K, x1 = 0.4006	1250.7 ± 1.1	–
308.15 K, x1 = 0.4996	–	64.71 ± 5.2
308.15 K, x1 = 0.5009	1265.2 ± 1.1	–
308.15 K, x1 = 0.5991	1281.3 ± 1.1	66.04 ± 5.3
308.15 K, x1 = 0.6997	–	66.38 ± 5.3
308.15 K, x1 = 0.7001	1300.8 ± 1.1	–
308.15 K, x1 = 0.7999	–	67.14 ± 5.4
308.15 K, x1 = 0.8	1315.2 ± 1.1	–
308.15 K, x1 = 0.8995	1333.1 ± 1.1	–
308.15 K, x1 = 0.8998	–	68.51 ± 5.5
308.15 K, x1 = 1	1351.2 ± 1.1	68.59 ± 5.5
313.15 K, x1 = 0.1003	–	53.11 ± 4.3
313.15 K, x1 = 0.101	1203.3 ± 1.1	–
313.15 K, x1 = 0.2001	–	52.17 ± 4.2
313.15 K, x1 = 0.201	1216.9 ± 1.1	–
313.15 K, x1 = 0.2997	–	52.58 ± 4.2
313.15 K, x1 = 0.3002	1231.3 ± 1.1	–
313.15 K, x1 = 0.3999	–	52.83 ± 4.2
313.15 K, x1 = 0.4006	1247.1 ± 1.1	–
313.15 K, x1 = 0.4996	–	51.96 ± 4.2
313.15 K, x1 = 0.5009	1261.6 ± 1.1	–
313.15 K, x1 = 0.5991	1277.7 ± 1.1	52.99 ± 4.2
313.15 K, x1 = 0.6997	–	53.19 ± 4.3
313.15 K, x1 = 0.7001	1297.3 ± 1.1	–
313.15 K, x1 = 0.7999	–	53.69 ± 4.3
313.15 K, x1 = 0.8	1311.5 ± 1.1	–
313.15 K, x1 = 0.8995	1329.4 ± 1.1	–
313.15 K, x1 = 0.8998	–	54.68 ± 4.4
313.15 K, x1 = 1	1347.4 ± 1.1	54.81 ± 4.4
318.15 K, x1 = 0.1003	–	43.44 ± 3.5
318.15 K, x1 = 0.2001	–	42.58 ± 3.4
318.15 K, x1 = 0.2997	–	42.92 ± 3.4
318.15 K, x1 = 0.3999	–	43.11 ± 3.5
318.15 K, x1 = 0.4996	–	42.41 ± 3.4
318.15 K, x1 = 0.5991	–	43.22 ± 3.5
318.15 K, x1 = 0.6997	–	43.31 ± 3.5
318.15 K, x1 = 0.7999	–	43.66 ± 3.5
318.15 K, x1 = 0.8998	–	44.39 ± 3.6
318.15 K, x1 = 1	–	44.44 ± 3.6
